{"source": "paper PMC11240139", "about": "“Exploring the antitumor potential of novel quinoline derivatives via tubulin polymerization inhibition in breast cancer; design, synthesis and molecular docking” (RSC Advances, 2024)", "assay_in_all_cases": "NCI-60 SRB cytotoxicity screen", "assay_type_in_all_cases": "cell-based", "key": {"[1]": {"tested_on": "SF-539 (CNS cancer)"}, "[2]": {"tested_on": "A549/ATCC (non-small cell lung cancer)"}, "[3]": {"tested_on": "NCI-H460 (non-small cell lung cancer)"}, "[4]": {"tested_on": "ACHN (renal cancer)"}, "[5]": {"tested_on": "HS 578T (breast cancer)"}, "[6]": {"tested_on": "UO-31 (renal cancer)"}, "[7]": {"tested_on": "OVCAR-8 (ovarian cancer)"}, "[8]": {"tested_on": "NCI/ADR-RES (ovarian cancer)"}, "[9]": {"tested_on": "NCI-H226 (non-small cell lung cancer)"}, "[10]": {"tested_on": "MOLT-4 (leukemia)"}, "[11]": {"tested_on": "SK-MEL-28 (melanoma)"}, "[12]": {"tested_on": "KM12 (colon cancer)"}, "[13]": {"tested_on": "BT-549 (breast cancer)"}, "[14]": {"tested_on": "EKVX (non-small cell lung cancer)"}, "[15]": {"tested_on": "RPMI-8226 (leukemia)"}, "[16]": {"tested_on": "SF-295 (CNS cancer)"}, "[17]": {"tested_on": "K-562 (leukemia)"}, "[18]": {"tested_on": "UACC-62 (melanoma)"}, "[19]": {"settings": "Homo sapiens, SF-539, five-dose assay"}, "[20]": {"settings": "Homo sapiens, five-dose assay, read-out: LC50 (the source's name)"}, "[21]": {"settings": "Homo sapiens, single dose 10 μM, read-out: growth inhibition (GI%)"}, "[22]": {"settings": "Homo sapiens, NCI-H460, five-dose assay"}, "[23]": {"settings": "Homo sapiens, UO-31, five-dose assay"}, "[24]": {"settings": "Homo sapiens, NCI-H226, five-dose assay"}, "[25]": {"settings": "Homo sapiens, SK-MEL-28, five-dose assay"}, "[26]": {"settings": "Homo sapiens, BT-549, five-dose assay"}, "[27]": {"settings": "Homo sapiens, SF-295, five-dose assay"}}, "data": [{"smiles": "CCc1cccc2cc(-c3cc(-c4cc(OC)c(OC)c(OC)c4)[nH]c(=O)c3C#N)c(Cl)nc12", "note": "[Compound 4c, 4-(2-Chloro-8-ethylquinolin-3-yl)-2-oxo-6-(3,4,5-trimethoxyphenyl)-1,2-dihydropyridine-3-carbonitrile]", "values": [{"measurement": "GI50", "setting": "[1]; [19]", "result": 12, "unit": "µM"}, {"measurement": "LC50 (50% lethal concentration)", "setting": "[1]; [19]", "result": 51.3, "unit": "µM"}, {"measurement": "inhibition at 10 µM", "setting": "[1]; Homo sapiens, SF-539, single dose 10 μM, read-out: growth inhibition (GI%)", "result": "> 100", "unit": "%"}, {"measurement": "TGI", "setting": "[1]; SF-539, five-dose assay", "result": 24.80, "unit": "µM"}, {"measurement": "growth inhibition (GI%)", "setting": "[1]; SF-539, single dose 10 μM", "result": "lethal effect"}, {"measurement": "GI50", "setting": "[2]; Homo sapiens, five-dose assay", "result": 12.2, "unit": "µM"}, {"measurement": "CC50", "setting": "[2]; [20]", "result": "> 100", "unit": "µM"}, {"measurement": "inhibition at 10 µM", "setting": "[2]; [21]", "result": 88.2, "unit": "%"}, {"measurement": "TGI", "setting": "[2]; five-dose assay", "result": 48.70, "unit": "µM"}, {"measurement": "GI50", "setting": "[3]; [22]", "result": 16.1, "unit": "µM"}, {"measurement": "LC50 (50% lethal concentration)", "setting": "[3]; [22]", "result": "> 100", "unit": "µM"}, {"measurement": "inhibition at 10 µM", "setting": "[3]; Homo sapiens, NCI-H460, single dose 10 μM, read-out: growth inhibition (GI%)", "result": 58.6, "unit": "%"}, {"measurement": "TGI", "setting": "[3]; NCI-H460, five-dose assay", "result": 41.80, "unit": "µM"}, {"measurement": "GI50", "setting": "[4]; Homo sapiens, five-dose assay", "result": 15.6, "unit": "µM"}, {"measurement": "LC50", "setting": "[4]; Homo sapiens, five-dose assay", "result": 61.8, "unit": "µM"}, {"measurement": "inhibition at 10 µM", "setting": "[4]; [21]", "result": 75.7, "unit": "%"}, {"measurement": "TGI", "setting": "[4]; five-dose assay", "result": 31.00, "unit": "µM"}, {"measurement": "GI50", "setting": "[5]; Homo sapiens, five-dose assay", "result": 2.38, "unit": "µM"}, {"measurement": "LC50 (50% lethal concentration)", "setting": "[5]; Homo sapiens, five-dose assay", "result": "> 100", "unit": "µM"}, {"measurement": "inhibition at 10 µM", "setting": "[5]; [21]", "result": "> 100", "unit": "%"}, {"measurement": "TGI", "setting": "[5]; five-dose assay", "result": 7.26, "unit": "µM"}, {"measurement": "growth inhibition (GI%)", "setting": "[5]; single dose 10 μM", "result": "lethal effect"}, {"measurement": "GI50", "setting": "[6]; [23]", "result": 12.6, "unit": "µM"}, {"measurement": "LC50 (50% lethal concentration)", "setting": "[6]; [23]", "result": "> 100", "unit": "µM"}, {"measurement": "inhibition at 10 µM", "setting": "[6]; Homo sapiens, UO-31, single dose 10 μM, read-out: growth inhibition (GI%)", "result": "> 100", "unit": "%"}, {"measurement": "TGI", "setting": "[6]; UO-31, five-dose assay", "result": ">100", "unit": "µM"}, {"measurement": "growth inhibition (GI%)", "setting": "[6]; UO-31, single dose 10 μM", "result": "lethal effect"}, {"measurement": "GI50", "setting": "[7]; Homo sapiens, OVCAR-8, five-dose assay", "result": 18.5, "unit": "µM"}, {"measurement": "CC50", "setting": "[7]; Homo sapiens, OVCAR-8, five-dose assay, read-out: LC50 (the source's name)", "result": "> 100", "unit": "µM"}, {"measurement": "inhibition at 10 µM", "setting": "[7]; Homo sapiens, OVCAR-8, single dose 10 μM, read-out: growth inhibition (GI%)", "result": 92.1, "unit": "%"}, {"measurement": "TGI", "setting": "[7]; OVCAR-8, five-dose assay", "result": 93.60, "unit": "µM"}, {"measurement": "GI50", "setting": "[8]; Homo sapiens, five-dose assay", "result": 44.9, "unit": "µM"}, {"measurement": "CC50", "setting": "[8]; [20]", "result": "> 100", "unit": "µM"}, {"measurement": "inhibition at 10 µM", "setting": "[8]; [21]", "result": 59.9, "unit": "%"}, {"measurement": "TGI", "setting": "[8]; five-dose assay", "result": ">100", "unit": "µM"}, {"measurement": "GI50", "setting": "[9]; [24]", "result": 10.9, "unit": "µM"}, {"measurement": "LC50 (lethal concentration, 50% cell kill)", "setting": "[9]; [24]", "result": 97.7, "unit": "µM"}, {"measurement": "inhibition at 10 µM", "setting": "[9]; Homo sapiens, NCI-H226, single dose 10 μM, read-out: growth inhibition (GI%)", "result": "> 100", "unit": "%"}, {"measurement": "TGI", "setting": "[9]; NCI-H226, five-dose assay", "result": 32.60, "unit": "µM"}, {"measurement": "growth inhibition (GI%)", "setting": "[9]; NCI-H226, single dose 10 μM", "result": "lethal effect"}, {"measurement": "GI50", "setting": "[10]; Homo sapiens, MOLT-4, five-dose assay", "result": 8.17, "unit": "µM"}, {"measurement": "CC50", "setting": "[10]; Homo sapiens, MOLT-4, five-dose assay, read-out: LC50 (the source's name)", "result": "> 100", "unit": "µM"}, {"measurement": "inhibition at 10 µM", "setting": "[10]; Homo sapiens, MOLT-4, single dose 10 μM, read-out: growth inhibition (GI%)", "result": 76.4, "unit": "%"}, {"measurement": "TGI", "setting": "[10]; MOLT-4, five-dose assay", "result": 79.90, "unit": "µM"}, {"measurement": "GI50", "setting": "[11]; [25]", "result": 21.1, "unit": "µM"}, {"measurement": "LC50 (concentration causing 50% net cell kill)", "setting": "[11]; [25]", "result": "> 100", "unit": "µM"}, {"measurement": "inhibition at 10 µM", "setting": "[11]; Homo sapiens, SK-MEL-28, single dose 10 μM, read-out: growth inhibition (GI%)", "result": 68.9, "unit": "%"}, {"measurement": "TGI", "setting": "[11]; SK-MEL-28, five-dose assay", "result": ">100", "unit": "µM"}, {"measurement": "GI50", "setting": "[12]; Homo sapiens, KM12, five-dose assay", "result": 33.6, "unit": "µM"}, {"measurement": "CC50", "setting": "[12]; Homo sapiens, KM12, five-dose assay, read-out: LC50 (the source's name)", "result": "> 100", "unit": "µM"}, {"measurement": "inhibition at 10 µM", "setting": "[12]; Homo sapiens, KM12, single dose 10 μM, read-out: growth inhibition (GI%)", "result": 55.1, "unit": "%"}, {"measurement": "TGI", "setting": "[12]; KM12, five-dose assay", "result": ">100", "unit": "µM"}, {"measurement": "TGI", "setting": "[13]; BT-549, five-dose assay", "result": 28.10, "unit": "µM"}, {"measurement": "GI50", "setting": "[13]; [26]", "result": 4.11, "unit": "µM"}, {"measurement": "LC50", "setting": "[13]; [26]", "result": "> 100", "unit": "µM"}, {"measurement": "inhibition at 10 µM", "setting": "[13]; Homo sapiens, BT-549, single dose 10 μM, read-out: growth inhibition (GI%)", "result": 57.5, "unit": "%"}, {"measurement": "GI50", "setting": "[14]; Homo sapiens, five-dose assay", "result": 28.6, "unit": "µM"}, {"measurement": "CC50", "setting": "[14]; [20]", "result": "> 100", "unit": "µM"}, {"measurement": "inhibition at 10 µM", "setting": "[14]; [21]", "result": 50.1, "unit": "%"}, {"measurement": "TGI", "setting": "[14]; five-dose assay", "result": ">100", "unit": "µM"}, {"measurement": "GI50", "setting": "[15]; Homo sapiens, RPMI-8226, five-dose assay", "result": 5.16, "unit": "µM"}, {"measurement": "CC50", "setting": "[15]; Homo sapiens, RPMI-8226, five-dose assay, read-out: LC50 (the source's name)", "result": "> 100", "unit": "µM"}, {"measurement": "inhibition at 10 µM", "setting": "[15]; Homo sapiens, RPMI-8226, single dose 10 μM, read-out: growth inhibition (GI%)", "result": 74.5, "unit": "%"}, {"measurement": "TGI", "setting": "[15]; RPMI-8226, five-dose assay", "result": ">100", "unit": "µM"}, {"measurement": "GI50", "setting": "[16]; [27]", "result": 19.4, "unit": "µM"}, {"measurement": "LC50", "setting": "[16]; [27]", "result": "> 100", "unit": "µM"}, {"measurement": "inhibition at 10 µM", "setting": "[16]; Homo sapiens, SF-295, single dose 10 μM, read-out: growth inhibition (GI%)", "result": 96.4, "unit": "%"}, {"measurement": "TGI", "setting": "[16]; SF-295, five-dose assay", "result": ">100", "unit": "µM"}, {"measurement": "GI50", "setting": "[17]; Homo sapiens, K562, K-562, five-dose assay", "result": 7.72, "unit": "µM"}, {"measurement": "CC50", "setting": "[17]; Homo sapiens, K562, K-562, five-dose assay, read-out: LC50 (the source's name)", "result": "> 100", "unit": "µM"}, {"measurement": "inhibition at 10 µM", "setting": "[17]; Homo sapiens, K-652 [sic], single dose 10 μM, read-out: growth inhibition (GI%)", "result": 31.4, "unit": "%"}, {"measurement": "TGI", "setting": "[17]; K-562, five-dose assay", "result": 43.80, "unit": "µM"}, {"measurement": "GI50", "setting": "[18]; Homo sapiens, UACC-62, five-dose assay", "result": 17.5, "unit": "µM"}, {"measurement": "CC50", "setting": "[18]; Homo sapiens, UACC-62, five-dose assay, read-out: LC50 (the source's name)", "result": "> 100", "unit": "µM"}, {"measurement": "inhibition at 10 µM", "setting": "[18]; Homo sapiens, UACC-62, single dose 10 μM, read-out: growth inhibition (GI%)", "result": "> 100", "unit": "%"}, {"measurement": "TGI", "setting": "[18]; UACC-62, five-dose assay", "result": 60.10, "unit": "µM"}, {"measurement": "growth inhibition (GI%)", "setting": "[18]; UACC-62, single dose 10 μM", "result": "lethal effect"}]}]}
